Measurements reported in US20100004469A1, “ANTIMICROBIAL AGENTS AND MICROBICIDAL AGENTS” (KABUSHIKI KAISHA TOYOTA JIDOSHOKKI, priority 2006, published 2010).

How the values were obtained:
Format in all cases: cell-based
[1] = test system: Escherichia coli (NBRC 3972); assay: Test for antimicrobial activity, viable cell count (Example 1); conditions: room temperature
Method: (§1) After said strains were cultured in SCD agar medium at 35±2° C. for 18 to 24 hours, inocula were prepared by suspending the cultured stains in sterile purified water and adjusting the turbidity so as to correspond with No. 1 MacFarland. Using agar plates, the concentrations of the inocula were measured according to the agar plate mixed dilution method (Table 1). 3 mL of each of the 10%, 1.0% and 0.1% aqueous solutions of the test compound, and of sterile purified water (control) were prepared (n=1). 0.03 mL of said inocula was inoculated into each of the test solutions at room temperature. Immediately after, 15 minutes after, and 180 minutes after the inoculations, 0.5 mL of each of the test solutions was added to 49.5 mL of a sterile phosphate buffer (Pro-media MV2-1000, manufactured by ELMEX), and mixed. A ten fold dilution series of each of the mixtures was constructed. Then, the number of the viable cells therein were measured, and then it was converted to the number of viable cells per 1 mL of the test solutions or control. The number of viable cell was measured according to “Viable cell count; the agar plate mixed dilution method in the Japanese Pharmacopoeia, 14th revised edition”.

[2] = test system: Salmonella Enteritidis (NBRC 3313); assay: as above; conditions: room temperature
Method: as §1

[3] = test system: Staphylococcus aureus subsp. aureus (NBRC 13276); assay: as above; conditions: room temperature
Method: as §1

[4] = test system: Escherichia coli (NBRC 3972); assay: Test for antimicrobial activity with neutralization, viable cell count (Example 2); conditions: 20% aqueous solution, neutralized
Method: (§2) After said strains were cultured in SCD agar medium at 35±2° C. for 18 to 24 hours, inocula were prepared by suspending the stains in sterile purified water and adjusting the turbidity so as to correspond with No. 1 MacFarland. Using agar plate, the concentrations of the inocula were measured according to the agar plate mixed dilution method (Table 3). 3 mL of each of 20% aqueous solution of the test compound, a stock solution of a comparative compound and sterile water, (control) was prepared (n=1). 0.03 mL of said inocula was inoculated into each of the test solutions at a room temperature. Immediately after, 15 minutes after and 180 minutes after the inoculations, neutralization was performed under the following conditions. 0.5 mL of the test solution was added to 4.5 mL of sterile sodium hydrate solution at the concentration of 0.25 mol/L (sodium hydrate; manufactured by Wako Pure Chemical Industries, Ltd.), and mixed. Then, 45 mL of a sterile phosphate buffer (Pro-media MV2-1000, manufactured by ELMEX) was immediately added and mixed. 0.5 mL of the test solution was added to 4.5 mL of sterile sodium hydrate solution at the concentration of 2.0 mol/L, and mixed. Then, 45 mL of a sterile phosphate buffer was immediately added and mixed. A ten-fold dilution series of each of the neutralization solution was prepared. Then, the number of the viable cells therein was measured and it was converted to the number of viable cells per 1 mL of the test solutions or control. The number of viable cell was measured according to “Viable cell count; the agar plate mixed dilution method in the Japanese Pharmacopoeia, 14th revised edition”.

[5] = test system: Salmonella Enteritidis (NBRC 3313); assay: as above; conditions: 20% aqueous solution, neutralized
Method: as §2

[6] = test system: Staphylococcus aureus subsp. aureus (NBRC 13276); assay: as above; conditions: 20% aqueous solution, neutralized
Method: as §2

Question: With `O=C(O)c1cc(C(=O)O)oc(=O)c1` [test compound, 2H-pyran-2-on-4,6-dicarbonic acid] as the molecule, how does the “number of viable cells, Measured 15 min. after inoculation” value ([1]; 0.1% aqueous solution) read?
Answer: Its value is less than 100 cfu/mL.

Question: And the “number of viable cells, Measured 180 min. after inoculation” value ([1]; 0.1% aqueous solution)?
Answer: Its value is less than 100 cfu/mL.

Question: What about the “number of viable cells, Measured immediately after inoculation” value ([1]; 0.1% aqueous solution) of the same molecule?
Answer: The value was 10,000 cfu/mL.

Question: And the “number of viable cells, Measured 15 min. after inoculation” value ([1]; 1.0% aqueous solution)?
Answer: Its value is less than 100 cfu/mL.

Question: And the “number of viable cells, Measured 180 min. after inoculation” value ([1]; 1.0% aqueous solution)?
Answer: Its value is less than 100 cfu/mL.

Question: And the “number of viable cells, Measured immediately after inoculation” value ([1]; 1.0% aqueous solution)?
Answer: The value was less than 100 cfu/mL.

Question: And the “number of viable cells, Measured 15 min. after inoculation” value ([1]; 10% aqueous solution)?
Answer: The value was less than 100 cfu/mL.

Question: What about the “number of viable cells, Measured 180 min. after inoculation” value ([1]; 10% aqueous solution) of the same molecule?
Answer: The value was less than 100 cfu/mL.

Question: What about the “number of viable cells, Measured immediately after inoculation” value ([1]; 10% aqueous solution) of the same molecule?
Answer: Its value is less than 100 cfu/mL.

Question: And the “number of viable cells, Measured 15 min. after inoculation” value ([2]; 0.1% aqueous solution)?
Answer: The value was less than 100 cfu/mL.

Question: What about the “number of viable cells, Measured 180 min. after inoculation” value ([2]; 0.1% aqueous solution) of the same molecule?
Answer: Its value is less than 100 cfu/mL.

Question: And the “number of viable cells, Measured immediately after inoculation” value ([2]; 0.1% aqueous solution)?
Answer: The value was 12,000 cfu/mL.

Question: What about the “number of viable cells, Measured 15 min. after inoculation” value ([2]; 1.0% aqueous solution) of the same molecule?
Answer: Its value is less than 100 cfu/mL.

Question: What about the “number of viable cells, Measured 180 min. after inoculation” value ([2]; 1.0% aqueous solution) of the same molecule?
Answer: The value was less than 100 cfu/mL.

Question: What about the “number of viable cells, Measured immediately after inoculation” value ([2]; 1.0% aqueous solution) of the same molecule?
Answer: The value was less than 100 cfu/mL.

Question: What about the “number of viable cells, Measured 15 min. after inoculation” value ([2]; 10% aqueous solution) of the same molecule?
Answer: The value was less than 100 cfu/mL.

Question: What about the “number of viable cells, Measured 180 min. after inoculation” value ([2]; 10% aqueous solution) of the same molecule?
Answer: Its value is less than 100 cfu/mL.

Question: And the “number of viable cells, Measured immediately after inoculation” value ([2]; 10% aqueous solution)?
Answer: The value was less than 100 cfu/mL.

Question: What about the “number of viable cells, Measured 15 min. after inoculation” value ([3]; 0.1% aqueous solution) of the same molecule?
Answer: Its value is less than 100 cfu/mL.

Question: And the “number of viable cells, Measured 180 min. after inoculation” value ([3]; 0.1% aqueous solution)?
Answer: Its value is less than 100 cfu/mL.

Question: What about the “number of viable cells, Measured immediately after inoculation” value ([3]; 0.1% aqueous solution) of the same molecule?
Answer: The value was 11,000 cfu/mL.

Question: What about the “number of viable cells, Measured 15 min. after inoculation” value ([3]; 1.0% aqueous solution) of the same molecule?
Answer: Its value is less than 100 cfu/mL.

Question: And the “number of viable cells, Measured 180 min. after inoculation” value ([3]; 1.0% aqueous solution)?
Answer: Its value is less than 100 cfu/mL.

Question: What about the “number of viable cells, Measured immediately after inoculation” value ([3]; 1.0% aqueous solution) of the same molecule?
Answer: The value was 5,000 cfu/mL.

Question: And the “number of viable cells, Measured 15 min. after inoculation” value ([3]; 10% aqueous solution)?
Answer: The value was less than 100 cfu/mL.

Question: And the “number of viable cells, Measured 180 min. after inoculation” value ([3]; 10% aqueous solution)?
Answer: The value was less than 100 cfu/mL.

Question: And the “number of viable cells, Measured immediately after inoculation” value ([3]; 10% aqueous solution)?
Answer: Its value is less than 100 cfu/mL.

Question: What about the “number of viable cells, Measured 15 min. after inoculation” value ([4]; 15 min. after inoculation) of the same molecule?
Answer: The value was less than 100 cfu/mL.

Question: And the “number of viable cells, Measured 180 min. after inoculation” value ([4]; 180 min. after inoculation)?
Answer: The value was less than 100 cfu/mL.

Question: And the “number of viable cells, Measured immediately after inoculation” value ([4]; immediately after inoculation)?
Answer: The value was less than 100 cfu/mL.

Question: And the “number of viable cells, Measured 15 min. after inoculation” value ([5]; 15 min. after inoculation)?
Answer: Its value is less than 100 cfu/mL.

Question: And the “number of viable cells, Measured 180 min. after inoculation” value ([5]; 180 min. after inoculation)?
Answer: Its value is less than 100 cfu/mL.

Question: And the “number of viable cells, Measured immediately after inoculation” value ([5]; immediately after inoculation)?
Answer: The value was less than 100 cfu/mL.

Question: What about the “number of viable cells, Measured 15 min. after inoculation” value ([6]; 15 min. after inoculation) of the same molecule?
Answer: The value was less than 100 cfu/mL.

Question: What about the “number of viable cells, Measured 180 min. after inoculation” value ([6]; 180 min. after inoculation) of the same molecule?
Answer: Its value is less than 100 cfu/mL.

Question: And the “number of viable cells, Measured immediately after inoculation” value ([6]; immediately after inoculation)?
Answer: Its value is less than 100 cfu/mL.
